In patent publication US20070072829A1, “Fungicidal composition comprising a pyridylmethylbenzamide derivative and a sulfamide derivative” (priority 2003, published 2007):

Tested on: Plasmopara viticola
Experiment: 72 h preventive treatment of vine plants against vine downy mildew, Abbott efficacy, Tammes and Colby analysis
Format: in vivo
[1] = Compound Ia share of the mixture, or Compound Ia alone
[2] = tolylfluanid share of the mixture, or tolylfluanid alone

| Compound | ED70: Practical doses for 70% efficacy, dose of Compound Ia [1] [µg/mL] | ED90: Practical doses for 90% efficacy, dose of Compound Ia [1] [µg/mL] | ED70: Practical doses for 70% efficacy, dose of tolylfluanid [2] [µg/mL] | ED90: Practical doses for 90% efficacy, dose of tolylfluanid [2] [µg/mL] |
| --- | --- | --- | --- | --- |
| O=C(NCc1ncc(C(F)(F)F)cc1Cl)c1c(Cl)cccc1Cl [Compound Ia, 2,6-dichloro-N-{[3-chloro-5-(trifluoromethyl)-2-pyridinyl]methyl}benzamide] | 27 | 65 | – | – |
| Cc1ccc(N(SC(F)(Cl)Cl)S(=O)(=O)N(C)C)cc1 [Tolylfluanid, N-dichlorofluoromethylthio-N′,N′-dimethyl-N-p-tolylsulfamide] | – | – | 231.4 | 533.6 |
